Experimental data published in paper PMC6736568, “Discovery of Novel Anti-cryptosporidial Activities From Natural Products by in vitro High-Throughput Phenotypic Screening” (Frontiers in Microbiology, 2019).
Counter-ions that a name gives are not always drawn. Like-named read-outs stand apart in the source and are kept apart here.

How the values were obtained:
Cryptosporidium parvum = experiment: qRT-PCR assay of the growth of C. parvum in vitro in HCT-8 host cells (primary and secondary screening, EC50); type: cell-based; conditions: Cryptosporidium parvum, HCT-8; for inhibition at 10 µM: primary screening at 10 uM, read-out: Inhibition (%); for inhibition at 3.3 µM: secondary screening at 3.3 uM, read-out: % Inhibition (3.3 uM)
[1] = primary screening at 10 uM, treated vs control

SMILES	Hs18S ΔCT (HCT-8 host cells (Hs18S); human, 41 h, 10 μM)	inhibition at 10 µM (Cryptosporidium parvum)	cytotoxicity at 41 h, 10 µM (in vitro; human)	Hs18S ΔCT (HCT-8 host cells (Hs18S); [1])	cytotoxicity at 10 µM (in vitro)	inhibition at 3.3 µM (Cryptosporidium parvum)	cytotoxicity at 41 h, 10 µM (in vitro)
CC(=O)N(O)CCCCCNC(=O)CCC(=O)N(O)CCCCCNC(=O)CCC(=O)N(O)CCCCCN [DEFEROXAMINE MESYLATE]	0.31	-48.5%	19.6%				
Oc1ccc2c(c1)OC[C@]1(O)Cc3cc(O)c(O)cc3[C@H]21 [BRAZILIN]	-0.12	8.3%	-8.9%				
COc1ccc2c(c1)OCc1c-2oc2cc(OC)ccc12 [DEHYDROVARIABILIN]	-0.42	22%	-33.6%				
CN[C@@H]1[C@H](O[C@H]2[C@H](O[C@H]3[C@H](O)[C@@H](O)[C@H](NC(=N)N)[C@@H](O)[C@@H]3NC(=N)N)O[C@@H](C)[C@]2(O)CO)O[C@@H](CO)[C@H](O)[C@H]1O [DIHYDROSTREPTOMYCIN SULFATE]		18%	3.4%	0.05			
CC[C@H](/C=C/[C@@H](C)[C@H]1CC[C@H]2[C@@H]3CC=C4C[C@@H](O)CC[C@]4(C)[C@H]3CC[C@]12C)C(C)C [STIGMASTEROL]		-18%		0.96	48.6%		
C=CC1=C(C)/C(=C/c2[nH]c(Cc3[nH]c(/C=C4\NC(=O)C(C)=C4C=C)c(C)c3CCC(=O)O)c(CCC(=O)O)c2C)NC1=O [BILIRUBIN]	-0.01	-7.55%	-0.9%				
N[C@@H](Cc1cc(I)c(Oc2cc(I)c(O)c(I)c2)c(I)c1)C(=O)O [LEVOTHYROXINE]	-0.03	-12.4%	-2.2%				
COC1=CC(=O)C(O)=C/C1=C\C=C\c1ccccc1 [OBTUSAQUINONE]	0.84	87.1%	44.3%			-92%	
COc1cc2ccc(=O)oc2c(OC)c1OC [FRAXIDIN METHYL ETHER]		-37.3%		-0.48	-39.5%		
COc1ccccc1O [GUAIACOL]	0.02	-32.9%	1.6%				
O=C(O)C1CC([C@@H]2CCCCN2)CN2CCCCC12 (stereo partly drawn) [APHYLLIC ACID]	0.25	-28.5%	16.1%				
O=c1cc(-c2ccccc2)oc2cc(O)ccc12 [7-HYDROXYFLAVONE]		9.24%		0.17	10.8%		
CC(=O)O[C@@H]1C[C@@]23C[C@@]24CC[C@H](O[C@@H]2OC[C@@H](O)[C@H](O)[C@H]2O)C(C)(C)[C@@H]4CC[C@H]3[C@]2(C)C[C@@H]3O[C@]4(C[C@@H](C)[C@@H]3[C@@]12C)O[C@H](O)[C@@]1(C)O[C@@H]41 [ACTEIN]		3.9%		-0.41			-33.3%
C=C(C)[C@@H]1CC[C@]2(CO)CC[C@]3(C)[C@H](CC[C@@H]4[C@@]5(C)CC[C@H](O)C(C)(C)[C@@H]5CC[C@]43C)[C@@H]12 [BETULIN]		36.9%		-0.49	-40.4%		
CC[C@H](CC[C@@H](C)[C@H]1CC[C@H]2[C@@H]3CC=C4C[C@@H](O)CC[C@]4(C)[C@H]3CC[C@]12C)C(C)C [beta-SITOSTEROL]		91.7%		0.43	25.8%	20%	
CC(=O)c1c(O)c(C)c(O)c2c1OC1=CC(=O)C(C(C)=O)C(=O)C12C (stereo not drawn) [USNIC ACID]		18.8%		-0.31	-23.9%		
COc1cc(OC)c2c(=O)cc(-c3ccccc3)oc2c1 [CHRYSIN DIMETHYL ETHER]		90.3%		-0.12	-8.6%	-69%	
CC(=O)Oc1c(C)c(C)c2c(c1C)CCC(C)(CCCC(C)CCCC(C)CCCC(C)C)O2 (stereo not drawn) [alpha-TOCHOPHERYL ACETATE]	-0.21	-13.6%	-15.8%				
CCCCCC[C@H]1C(=O)O[C@H](C)[C@H](NC(=O)c2cccc(NC=O)c2O)C(=O)O[C@@H](C)[C@@H]1OC(=O)CC(C)C [ANTIMYCIN A, ANTIMYCIN A (A1 shown)]		10.9%		0.12	7.7%		
C[C@H]1C(=O)O[C@@H]2CCN3CC=C(COC(=O)[C@](C)(O)[C@]1(C)O)[C@H]23 [MONOCROTALINE]		12%		0.14	9.5%		

SMILES	Hs18S ΔCT (HCT-8 host cells (Hs18S); human, 41 h, 10 μM)	inhibition at 10 µM (Cryptosporidium parvum)	cytotoxicity at 41 h, 10 µM (in vitro; human)	Hs18S ΔCT (HCT-8 host cells (Hs18S); [1])	cytotoxicity at 10 µM (in vitro)	inhibition at 3.3 µM (Cryptosporidium parvum)	cytotoxicity at 41 h, 10 µM (in vitro)
CC(C)[C@@H]1CC[C@@H](C)C[C@H]1OC(=O)c1ccccc1 [MENTHYL BENZOATE]	0.24	1.74%	15.1%				
COC(=O)CC[C@@H](C)[C@H]1CC[C@H]2[C@@H]3[C@H](O)C[C@@H]4C[C@H](O)CC[C@]4(C)[C@H]3C[C@H](O)[C@]12C [CHOLIC ACID, METHYL ESTER]	-0.11	42.1%	-7.7%				
COc1cccc(O)c1O [3-METHOXYCATECHOL]	0.05	-66.7%	3.2%				
CC[C@@H]1C(=O)OC[C@@H]1Cc1cncn1C [PILOCARPINE NITRATE]	-0.10	-30.2%	-7.3%				
COc1ccc(C(=O)O)cc1OC [VERATRIC ACID]		-10.7%		-0.09	-6.7%		
COc1ccc(C(C)=O)c(O)c1 [PAEONOL]	0.01	-10.4%	0.8%				
C=C[C@@](C)(O)CCC=C(C)C [LINALOOL (+)]		-23.3%		0.09	6.1%		
O=c1oc2ccccc2cc1O [3-HYDROXYCOUMARIN]	-0.21	-39.6%	-15.7%				
O=c1c(O)c(-c2ccccc2)oc2cc(O)cc(O)c12 [GALANGIN]		-14.9%		0.39	23.6%		
O=C(O)CCCCCCCCCCCC[C@@H]1C=CCC1 [CHAULMOOGRIC ACID]	-0.58	-4.94%	-49.1%				
CC(=O)O[C@@H]1C[C@H]2C(C)(C)C(=O)C=C[C@]2(C)[C@H]2CC[C@@]3(C)[C@H](c4ccoc4)OC(=O)[C@H]4O[C@]43[C@@]21C [GEDUNIN]	0.02	6.58%	1.2%				
OC[C@H]1O[C@@H](OCCc2ccc(O)cc2)[C@H](O)[C@@H](O)[C@@H]1O [SALIDROSIDE]	-0.22	14.8%	-16.1%				
CC1(C)C(=O)[C@@H]2C[C@@]3(O)C4=CC(=O)O[C@@H](c5ccoc5)[C@]4(C)CC[C@@H]3[C@@](C)(C2=O)[C@H]1CC(=O)O [8-HYDROX[…]]		-11%		1.43	63%		
CC(=O)O[C@H]1C[C@@]2(C)[C@@H](C[C@@H](O)[C@H]3[C@@]4(C)CC[C@@H](O)[C@@H](C)[C@@H]4CC[C@@]32C)/C1=C(\CCC=C(C)C)C(=O)O [FUSIDIC ACID]	-0.30	-82.8%	-23.2%				
COc1cc(-c2coc3cc(O)c(OC)c(O)c3c2=O)cc(O)c1OC [IRIGENIN]	-0.43	-15%	-34.9%				
C=C(C)[C@@H]1CC[C@]2(C)CC[C@]3(C)[C@H](CC[C@@H]4[C@@]5(C)CC[C@H](O)C(C)(C)[C@@H]5CC[C@]43C)[C@@H]12 [LUPEOL]		41.8%	3.4%	0.05			
C=C(C)[C@@H]1[C@H]2OC(=O)[C@@H]1[C@]1(O)C[C@H]3O[C@]34C(=O)O[C@H]2[C@]14C [PICROTOXININ]		23.1%		-0.81	-75.3%		
CC1=C2C(O)C(=O)OC3CC4C(C)(C)C(=O)C=C[C@]4(C)C(CC1)[C@]23C (stereo partly drawn) [MEROGEDUNIN]	-0.50	-12.3%	-41.1%				
COC1=CC(=O)O[C@@H](/C=C/c2ccccc2)C1 [KAWAIN]		16%		-0.15	-10.9%		
